Read-outs that look alike come from different tables or passages of the source.
Key:
SUM149 [1] = assay: Cytotoxicity in vitro in the presence and absence of legumain; type: cell-based
NCI H292 [2] = assay: as above; type: cell-based; settings: Homo sapiens
HT29 [3] = assay: as above; type: cell-based; settings: Homo sapiens
Caco-2 cells = assay: Caco-2 flux assay for cellular permeability; settings: Caco-2 cells; for Caco-2 Flux Papp A-B: apical to basal, 2 hours, HEPES buffer; for Caco-2 Flux Efflux ratio: ratio of Papp (B-A) to Papp (A-B), actively transported when >2 or <0.5
Method: (§1) Caco-2: The cell permeability of a substance can be investigated by means of in vitro testing in a flux assay using Caco-2 cells [M. D. Troutman and D. R. Thakker, Pharm. Res. 20 (8), 1210-1224 (2003)]. For this purpose, the cells were cultured for 15-16 days on 24-well filter plates. For the determination of permeation, the respective test substance was applied in a HEPES buffer to the cells either apically (A) or basally (B) and incubated for 2 hours. After 0 hours and after 2 hours, samples were taken from the cis and trans compartments. The samples were separated by HPLC (Agilent 1200, Böblingen, Germany) using reverse phase columns. The HPLC system was coupled via a Turbo Ion Spray Interface to a Triple Quadropol mass spectrometer API 4000 (AB SCIEX Deutschland GmbH, Darmstadt, Germany). The permeability was evaluated on the basis of a Papp value, which was calculated using the formula published by Schwab et al. [D. Schwab et al., J. Med. Chem. 46, 1716-1725 (2003)]. A substance was classified as actively transported when the ratio of Papp (B-A) to Papp (A-B) (efflux ratio) was >2 or <0.5. Compounds with an efflux ratio of 0.5-2 are considered not actively transported. In Table 5, reference compounds are provided for comparison. Ref 1 is exatecan mesylate, Ref 2 is DXd, and Ref 3 is 10,11-methylenedioxy-camptothecin (FL118).

786-O [4] = assay: Cytotoxicity in vitro in the presence and absence of elastase (MTT); type: cell-based, human; settings: Homo sapiens, 786-0, 786-O cells, 72 h, MTT
Outline: (§2)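 Cells seeded 24 h beforehand, then treated in triplicate with compound (10^−5 to 10^−13 M) alone or with 10 nM elastase for 72 h at 37 °C. Proliferation measured by MTT (4 h reagent, overnight lysis, absorbance 570 nm), normalised to untreated cells.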

NCI H292 [5] = assay: as above; type: cell-based, human; settings: Homo sapiens, NCI H292 cells, 72 h, MTT
Outline: as §2

HT29 [6] = assay: as above; type: cell-based, human; settings: Homo sapiens, HT-29, HT29 cells, 72 h, MTT
Outline: as §2

786-O [7] = assay: Cytotoxicity assay (Version 2), automated, AC50, with or without elastase; type: cell-based, human; settings: Homo sapiens, 786-0, 786-O cells, Version 2, activity concentration at −50%
Method: (§3) Cultivation of cells was performed according to standard procedures with the media recommended by the provider. The cells, in a total volume of 100 μL, were seeded in a 96-well plate with a white bottom (#3610). After a 24 h incubation period at 37° C. and […], the medium was exchanged by adding 90 μL fresh medium. The treatment started by adding the test compound in 10 μL of culture medium to the cells in triplicates. Concentrations ranging from 10^−5 M to 10^−13 M were chosen. Two identically treated sets of samples were prepared. One set was treated with the test compound alone, whereas to the second set the compound and 10 nM elastase was added followed by a 72 h incubation period at 37° C. and 5% CO2. The proliferation was detected using the MTT assay (ATCC). At the end of the incubation period the MTT reagent was added to all samples for 4 h. Lysis of the cells followed by addition of the detergent was done overnight. The formed dye was detected at 570 nm. The proliferation of untreated but otherwise identically handled cells was define as the […].
(§4) The Cytotoxicity assay (Version 2) was performed as above described. Some changes were applied as the assays were performed in an automated fashion and the IC50 values determination was changed. Here the change in metabolic activity of the cells, in percent, was calculated by normalization of the measured values to the absorbance values of medium containing wells without cells (=−100%) and the absorbance of the DMSO-treated cells (=0%). AC50 values (activity concentration at −50%) were determined by means of a 4 parameter Hill-fit using GeneData Screener software.

NCI H292 [8] = assay: as above; type: cell-based, human; settings: Homo sapiens, NCI H292 cells, Version 2, activity concentration at −50%
Method: as §3, §4

HT29 [9] = assay: as above; type: cell-based, human; settings: Homo sapiens, HT-29, HT29 cells, Version 2, activity concentration at −50%
Method: as §3, §4

SUM149 [10] = assay: as above; type: cell-based; settings: SUM149 cells, Version 2, activity concentration at −50%
Method: as §3, §4

SUM149 [11] = assay: Cytotoxicity in vitro in the presence and absence of elastase (MTT); type: cell-based; settings: SUM149 cells, 72 h, MTT
Outline: as §2

in vitro = settings: human, Caco-2
Method: as §1

CC[C@@]1(O)C(=O)OCc2c1cc1n(c2=O)Cc2c-1nc1cc(F)c(C)c3c1c2[C@@H](NC(=O)[C@H](CC(N)=O)NC(=O)[C@H](C)N(C)C(=O)[C@H](C)NC(=O)Cc1ccncc1)CC3 [Compound 11, N-[(pyridin-4-yl)acetyl]-L-alanyl-N-methyl-L-alanyl-N^1-[(1S,9S)-9-ethyl-5-fluoro-9-hydroxy-4-methyl-10,13-dioxo-2,3,9,10,13,15-hexahydro-1H, 12H-benzo[de]pyrano [3′,4′:6,7]indolizino [1,2-b]quinolin-1-yl]-L-aspartamide]
IC50 (SUM149 [1]; SUM149 cells, with legumain, read-out: SUM149 IC50 w legumain): 1.1 to 10 nM | IC50 (SUM149 [1]; SUM149 cells, without legumain, read-out: SUM149 IC50 w/o): 1.1 to 10 nM | IC50 (NCI H292 [2]; NCI H292 cells, with legumain, read-out: NCI H292 IC50 w legumain): 11 to 100 nM | IC50 (NCI H292 [2]; NCI H292 cells, without legumain, read-out: NCI H292 IC50 w/o): 11 to 100 nM | IC50 (HT29 [3]; HT-29, HT29 cells, with legumain, read-out: HT29 IC50 w legumain): > 100 nM | IC50 (HT29 [3]; HT-29, HT29 cells, without legumain, read-out: HT29 IC50 w/o): > 100 nM

CC[C@@]1(O)C(=O)OCc2c1cc1n(c2=O)Cc2c-1nc1cc(F)c(C)c3c1c2[C@@H](NC(=O)[C@H](CC(N)=O)NC(=O)Cc1ccncc1)CC3 [Compound 10, N^1-[(1S,9S)-9-ethyl-5-fluoro-9-hydroxy-4-methyl-10,13-dioxo-2,3,9,10,13,15-hexahydro-1H,12H-benzo[de]pyrano[3′,4′:6,7]indolizino[1,2-b]quinolin-1-yl]-N^2-[(pyridin-4-yl)acetyl]-L-aspartamide]
IC50 (SUM149 [1]; SUM149, read-out: SUM149 IC50 w legumain): > 100 nM | IC50 (SUM149 [1]; SUM149, read-out: SUM149 IC50 w/o): > 100 nM | IC50 (NCI H292 [2]; NCI-H292, read-out: NCI H292 IC50 w legumain): > 100 nM | IC50 (NCI H292 [2]; NCI-H292, read-out: NCI H292 IC50 w/o): > 100 nM | IC50 (HT29 [3]; HT-29, read-out: HT29 IC50 w legumain): > 100 nM | IC50 (HT29 [3]; HT-29, read-out: HT29 IC50 w/o): > 100 nM

exatecan mesylate [Ref 1, reference compound]
Caco-2 Flux Papp A-B (Caco-2 cells): CC (CC: 100-999) | Caco-2 Flux Efflux ratio (Caco-2 cells): B (B: not actively transported)

CCN(CC)[C@H]1CCc2c(C)c(F)cc3nc4c(c1c23)Cn1c-4cc2c(c1=O)COC(=O)[C@]2(O)CC [Compound 17, (1S,9S)-1-(diethylamino)-9-ethyl-5-fluoro-9-hydroxy-4-methyl-1,2,3,9,12,15-hexahydro-10H,13H-benzo[de]pyrano[3′,4′:6,7]indolizino[1,2-b]quinoline-10,13-dione]
IC50 (786-O [4]; with 10 nM elastase, read-out: 786-O IC50 w elastase): 1.1 to 10 nM | IC50 (786-O [4]; without elastase, read-out: 786-O IC50 w/o): 1.1 to 10 nM | IC50 (NCI H292 [5]; with 10 nM elastase, read-out: NCI H292 IC 50 w elastase): 1.1 to 10 nM | IC50 (NCI H292 [5]; without elastase, read-out: NCI H292 IC 50 w/o): 1.1 to 10 nM | IC50 (HT29 [6]; with 10 nM elastase, read-out: HT29 IC50 w elastase): 1.1 to 10 nM | IC50 (HT29 [6]; without elastase, read-out: HT29 IC50 w/o): 1.1 to 10 nM | AC50 (786-O [7]; with elastase, read-out: 786-O AC50 +elastase): 1.1 to 10 nM | AC50 (786-O [7]; without elastase, read-out: 786-O AC50 −elastase): 1.1 to 10 nM | AC50 (NCI H292 [8]; with elastase, read-out: NCI H292 AC50 +elastase): 1.1 to 10 nM | AC50 (NCI H292 [8]; without elastase, read-out: NCI H292 AC50 −elastase): 1.1 to 10 nM | AC50 (HT29 [9]; with elastase, read-out: HT29 AC50 +elastase): 11 to 100 nM | AC50 (HT29 [9]; without elastase, read-out: HT29 AC50 −elastase): 11 to 100 nM | AC50 (SUM149 [10]; with elastase, read-out: SUM149 AC50 +elastase): 1.1 to 10 nM | AC50 (SUM149 [10]; without elastase, read-out: SUM149 AC50 −elastase): 1.1 to 10 nM | IC50 (SUM149 [11]; with 10 nM elastase, read-out: SUM149 IC50 w elastase): 0.1 to 1 nM | IC50 (SUM149 [11]; without elastase, read-out: SUM149 IC50 w/o): 0.1 to 1 nM | Papp A→B at 2 h (in vitro): 10 to 99.9 ×10⁻⁶ cm/s | efflux ratio at 2 h (in vitro): 0.5 to 2

CC[C@@]1(O)C(=O)OCc2c1cc1n(c2=O)Cc2c-1nc1cc(F)c(C)c3c1c2[C@@H](NC(=O)CO)CC3 [Ref 2, DXd, reference compound]
Caco-2 Flux Papp A-B (Caco-2 cells): AA (AA: 1-9) | Caco-2 Flux Efflux ratio (Caco-2 cells): A (A: actively transported)

CC[C@@]1(O)C(=O)OCc2c1cc1n(c2=O)Cc2cc3cc4c(cc3nc2-1)OCO4 [Ref 3, 10,11-methylenedioxy-camptothecin, reference compound]
Caco-2 Flux Papp A-B (Caco-2 cells): CC (CC: 100-999) | Caco-2 Flux Efflux ratio (Caco-2 cells): B (B: not actively transported)

— patent US20250032477A1, “COMPOUNDS, PHARMACEUTICAL COMPOSITIONS, AND METHODS FOR THE TREATMENT, PREVENTION, OR MANAGEMENT OF HYPERPROLIFERATIVE DISORDERS” (VINCERX PHARMA GMBH, priority 2021, published 2025)
